Measured values published in ChEMBL document CHEMBL3612057, “Discovery of indolizines containing triazine moiety as new leads for the development of antitumoral agents targeting mitotic events” (2015).
Calls of active or inactive are those of the source. No cut-off for these calls is given here.

Legend:
[1] = tested on: CCRF-CEM; assay: Cytotoxicity against human CCRF-CEM cells assessed as growth inhibition at 10 uM after 24 hrs by SRB assay; assay type: functional
[2] = tested on: HL-60(TB); assay: Cytotoxicity against human HL-60(TB) cells assessed as growth inhibition at 10 uM after 24 hrs by SRB assay; assay type: functional
[3] = tested on: K562; assay: Cytotoxicity against human K562 cells assessed as growth inhibition at 10 uM after 24 hrs by SRB assay; assay type: functional
[4] = tested on: RPMI-8226; assay: Cytotoxicity against human RPMI8226 cells assessed as growth inhibition at 10 uM after 24 hrs by SRB assay; assay type: functional
[5] = tested on: SR; assay: Cytotoxicity against human SR cells assessed as growth inhibition at 10 uM after 24 hrs by SRB assay; assay type: functional
[6] = tested on: A549; assay: Cytotoxicity against human A549 cells assessed as growth inhibition at 10 uM after 24 hrs by SRB assay; assay type: functional; details: for inhibition of growth at 10 µM: A549, 24 h, read-out: GI
[7] = tested on: HOP-62; assay: Cytotoxicity against human HOP62 cells assessed as growth inhibition at 10 uM after 24 hrs by SRB assay; assay type: functional; details: for inhibition of growth at 10 µM: HOP-62, 24 h, read-out: GI
[8] = tested on: HOP-92; assay: Cytotoxicity against human HOP92 cells assessed as growth inhibition at 10 uM after 24 hrs by SRB assay; assay type: functional
[9] = tested on: NCI-H226; assay: Cytotoxicity against human NCI-H226 cells assessed as growth inhibition at 10 uM after 24 hrs by SRB assay; assay type: functional
[10] = tested on: NCI-H460; assay: Cytotoxicity against human NCI-H460 cells assessed as growth inhibition at 10 uM after 24 hrs by SRB assay; assay type: functional; details: for inhibition of growth at 10 µM: NCI-H460, 24 h, read-out: GI
[11] = tested on: NCI-H522; assay: Cytotoxicity against human NCI-H522 cells assessed as growth inhibition at 10 uM after 24 hrs by SRB assay; assay type: functional
[12] = tested on: HCT-116; assay: Cytotoxicity against human HCT116 cells assessed as growth inhibition at 10 uM after 24 hrs by SRB assay; assay type: functional
[13] = tested on: SF-295; assay: Cytotoxicity against human SF295 cells assessed as growth inhibition at 10 uM after 24 hrs by SRB assay; assay type: functional; details: SF-295, 24 h, read-out: GI
[14] = tested on: SF-539; assay: Cytotoxicity against human SF539 cells assessed as growth inhibition at 10 uM after 24 hrs by SRB assay; assay type: functional
[15] = tested on: SNB-75; assay: Cytotoxicity against human SNB75 cells assessed as growth inhibition at 10 uM after 24 hrs by SRB assay; assay type: functional; details: SNB-75, 24 h, read-out: GI
[16] = tested on: U-251; assay: Cytotoxicity against human U251 cells assessed as growth inhibition at 10 uM after 24 hrs by SRB assay; assay type: functional
[17] = tested on: Malme-3M; assay: Cytotoxicity against human MALME-3M cells assessed as growth inhibition at 10 uM after 24 hrs by SRB assay; assay type: functional; details: read-out: GI
[18] = tested on: MDA-MB-435; assay: Cytotoxicity against human MDA-MB-435 cells assessed as growth inhibition at 10 uM after 24 hrs by SRB assay; assay type: functional
[19] = tested on: SK-MEL-28; assay: Cytotoxicity against human SK-MEL-28 cells assessed as growth inhibition at 10 uM after 24 hrs by SRB assay; assay type: functional; details: SK-MEL-28, 24 h, read-out: GI
[20] = tested on: SK-MEL-5; assay: Cytotoxicity against human SK-MEL-5 cells assessed as growth inhibition at 10 uM after 24 hrs by SRB assay; assay type: functional
[21] = tested on: UACC-257; assay: Cytotoxicity against human UACC257 cells assessed as growth inhibition at 10 uM after 24 hrs by SRB assay; assay type: functional
[22] = tested on: UACC-62; assay: Cytotoxicity against human UACC62 cells assessed as growth inhibition at 10 uM after 24 hrs by SRB assay; assay type: functional
[23] = tested on: OVCAR-3; assay: Cytotoxicity against human OVCAR3 cells assessed as growth inhibition at 10 uM after 24 hrs by SRB assay; assay type: functional; details: for inhibition of growth at 10 µM: OVCAR-3, 24 h, read-out: GI
[24] = tested on: OVCAR-4; assay: Cytotoxicity against human OVCAR4 cells assessed as growth inhibition at 10 uM after 24 hrs by SRB assay; assay type: functional; details: for inhibition of growth at 10 µM: OVCAR-4, 24 h, read-out: GI
[25] = tested on: OVCAR-8; assay: Cytotoxicity against human OVCAR8 cells assessed as growth inhibition at 10 uM after 24 hrs by SRB assay; assay type: functional; details: OVCAR-8, 24 h, read-out: GI
[26] = tested on: NCI/ADR-RES; assay: Cytotoxicity against human NCI/ADR-RES cells assessed as growth inhibition at 10 uM after 24 hrs by SRB assay; assay type: functional; details: for inhibition of growth at 10 µM: read-out: GI
[27] = tested on: SK-OV-3; assay: Cytotoxicity against human SKOV3 cells assessed as growth inhibition at 10 uM after 24 hrs by SRB assay; assay type: functional; details: for inhibition of growth at 10 µM: SK-OV-3, 24 h, read-out: GI
[28] = tested on: 786-0; assay: Cytotoxicity against human 786-0 cells assessed as growth inhibition at 10 uM after 24 hrs by SRB assay; assay type: functional; details: 786-0, 24 h, read-out: GI
[29] = tested on: ACHN; assay: Cytotoxicity against human ACHN cells assessed as growth inhibition at 10 uM after 24 hrs by SRB assay; assay type: functional; details: read-out: GI
[30] = tested on: CAKI-1; assay: Cytotoxicity against human CAKI-1 cells assessed as growth inhibition at 10 uM after 24 hrs by SRB assay; assay type: functional
[31] = tested on: RXF 393; assay: Cytotoxicity against human RXF393 cells assessed as growth inhibition at 10 uM after 24 hrs by SRB assay; assay type: functional; details: RXF 393, 24 h, read-out: GI
[32] = tested on: TK-10; assay: Cytotoxicity against human TK10 cells assessed as growth inhibition at 10 uM after 24 hrs by SRB assay; assay type: functional
[33] = tested on: PC-3; assay: Cytotoxicity against human PC3 cells assessed as growth inhibition at 10 uM after 24 hrs by SRB assay; assay type: functional; details: for inhibition of growth at 10 µM: PC-3, 24 h, read-out: GI
[34] = tested on: MCF7; assay: Cytotoxicity against human MCF7 cells assessed as growth inhibition at 10 uM after 24 hrs by SRB assay; assay type: functional; details: MCF7, 24 h, read-out: GI
[35] = tested on: MDA-MB-231; assay: Cytotoxicity against human MDA-MB-231 cells assessed as growth inhibition at 10 uM after 24 hrs by SRB assay; assay type: functional; details: MDA-MB-231, 24 h, read-out: GI
[36] = Cytotoxicity against human Hs578T cells assessed as growth inhibition at 10 uM after 24 hrs by SRB assay; assay type: functional; details: Hs-578T, read-out: GI
[37] = tested on: T47D; assay: Cytotoxicity against human T47D cells assessed as growth inhibition at 10 uM after 24 hrs by SRB assay; assay type: functional; details: read-out: GI
[38] = organism: Ovis aries; assay: Inhibition of sheep tubulin polymerization at 100 uM by fluorescence assay

Row | Structure (SMILES) | growth inhibition (GI) [1] | growth inhibition (GI) [2] | growth inhibition (GI) [3] | growth inhibition (GI) [4] | growth inhibition (GI) [8] | inhibition of growth at 10 µM [13] [%] | inhibition of growth at 10 µM [15] [%] | inhibition of growth at 10 µM [17] [%] | growth inhibition (GI) [18] | inhibition of growth at 10 µM [19] [%] | growth inhibition (GI) [20] | inhibition of growth at 10 µM [25] [%] | inhibition of growth at 10 µM [28] [%] | inhibition of growth at 10 µM [29] [%] | inhibition of growth at 10 µM [31] [%] | inhibition of growth at 10 µM [34] [%] | inhibition of growth at 10 µM [35] [%] | inhibition of growth at 10 µM [36] [%] | inhibition of growth at 10 µM [37] [%] | inhibition [38] | also measured
1 | COc1nc(OC)nc(-c2cc(C(=O)c3ccc(Br)cc3)n3c2ccc2ccccc23)n1 | inactive | inactive | inactive | inactive | inactive | 59 | 69 | 58 | inactive | 43 | inactive | 50 | 45 | 22 | 61 | 44 | 80 | 56 | 31 | inactive | growth inhibition (GI) [5]: inactive; inhibition of growth at 10 µM [6]: 49%; inhibition of growth at 10 µM [7]: 79%; inhibition of growth at 10 µM ([9]; NCI-H226, 24 h, read-out: GI): 35%; inhibition of growth at 10 µM [10]: 68%; growth inhibition (GI) [11]: inactive; growth inhibition (GI) [12]: inactive; growth inhibition (GI) [14]: inactive; growth inhibition (GI) [16]: inactive; inhibition of growth at 10 µM ([21]; UACC-257, 24 h, read-out: GI): 30%; growth inhibition (GI) [22]: inactive; inhibition of growth at 10 µM [23]: 31%; inhibition of growth at 10 µM [24]: 30%; inhibition of growth at 10 µM [26]: 43%; growth inhibition (GI) [27]: inactive; inhibition of growth at 10 µM ([30]; CAKI-1, 24 h, read-out: GI): 33%; growth inhibition (GI) [32]: inactive; inhibition of growth at 10 µM [33]: 37%
2 | COc1nc(OC)nc(-c2cc(C(=O)c3ccc(Cl)cc3)n3ccccc23)n1 | – | inactive | inactive | – | inactive | 33 | -3 | 30 | inactive | 12 | inactive | 24 | 31 | 56 | 37 | 19 | 43 | 46 | 19 | inactive | inhibition of growth at 10 µM ([1]; read-out: GI): 11%; inhibition of growth at 10 µM ([4]; RPMI-8226, 24 h, read-out: GI): 13%; inhibition of growth at 10 µM ([5]; read-out: GI): 26%; inhibition of growth at 10 µM [6]: 21%; inhibition of growth at 10 µM [7]: 77%; growth inhibition (GI) [9]: inactive; inhibition of growth at 10 µM [10]: 20%; inhibition of growth at 10 µM ([11]; NCI-H522, 24 h, read-out: GI): 47%; inhibition of growth at 10 µM ([12]; HCT-116, 24 h, read-out: GI): 26%; inhibition of growth at 10 µM ([14]; SF-539, 24 h, read-out: GI): 39%; inhibition of growth at 10 µM ([16]; U-251, 24 h, read-out: GI): 44%; growth inhibition (GI) [21]: inactive; inhibition of growth at 10 µM ([22]; UACC-62, 24 h, read-out: GI): 14%; growth inhibition (GI) [23]: inactive; growth inhibition (GI) [24]: inactive; growth inhibition (GI) [26]: inactive; inhibition of growth at 10 µM [27]: 55%; growth inhibition (GI) [30]: inactive; inhibition of growth at 10 µM ([32]; TK-10, 24 h, read-out: GI): 12%; inhibition of growth at 10 µM [33]: 19%
3 | COc1nc(OC)nc(-c2cc(C(=O)c3ccc(Br)cc3)n3c(C)cccc23)n1 | inactive | inactive | inactive | inactive | inactive | 22 | 75 | 18 | inactive | 14 | inactive | 29 | 14 | 30 | 36 | 24 | 27 | 22 | 19 | inactive | growth inhibition (GI) [5]: inactive; growth inhibition (GI) [6]: inactive; growth inhibition (GI) [7]: inactive; growth inhibition (GI) [9]: inactive; growth inhibition (GI) [10]: inactive; growth inhibition (GI) [11]: inactive; growth inhibition (GI) [12]: inactive; growth inhibition (GI) [14]: inactive; growth inhibition (GI) [16]: inactive; growth inhibition (GI) [21]: inactive; growth inhibition (GI) [22]: inactive; inhibition of growth at 10 µM [23]: 15%; inhibition of growth at 10 µM [24]: 18%; inhibition of growth at 10 µM [26]: 14%; inhibition of growth at 10 µM [27]: 20%; growth inhibition (GI) [30]: inactive; growth inhibition (GI) [32]: inactive; growth inhibition (GI) [33]: inactive
